The text below walks through data of EP0472304A2, “Pharmaceutical compositions containing therapeutically active organosilane derivatives and process for preparing same” (Richter Gedeon Vegyészeti Gyár R.T., priority 1990, dated 1992).

One assay relates to Straub's tail. Briefly: Straub's tail test (morphine-induced). The assay is classed as in vivo, male OF-1 mice. The settings on record: Mus musculus, ip; mice, i.p., pretreatment 20 min before reading; 60 mg/kg i.p. morphine hydrochloride. How it is done:
Method 2: Straub's tail test
The method of Novack [Drug Development Res. 2, 383 (1982)] was used with a slight modification. Groups consisting of 10 male OF-1 mice each weighing 19 to 21 g were intraperitoneally treated with 60 mg/kg of morphine hydrochloride. The formation of Straub's tail was judged 15 minutes after the morphine treatment. This was considered to be positive when the animal kept his tail permanently upwards at an angle being steeper than 45°. A pretreatment was carried out with various doses of the compound to be tested 20 minutes before the time of reading. The ED50 value, i.e. the dose inhibiting the positive response in 50% of the animals, was calculated by using the method of Litchfield and Wilcoxon.
(The above author found a good relation between the activity shown in the above test and the clinical effectivity of central muscle relaxants.)

The next assay relates to flexor reflex. In words: Investigation of the flexor reflex on anaesthetized cats. The assay is classed as in vivo. The note with it: chloralose-anaesthetized cats. The source says:
Method 3: Investigation of the flexor reflex on anaesthetized cats
Chloralose-anaesthetized cats of both sexes weighing 2.2-5.4 kg each were used in these experiments. The flexor reflex of the animals was studied by using the quantitative electromyographic method of Farkas et al [Pharmacol. Res. Comm. 20, Suppl. 1, 141 (1988)].
The results summarized in Table 1 are the values calculated from the average results of 4 to 8 experiments. The duration of effect was characterized by the time passing from the administration of this dose until the return to 75% of the control value (T75%).
The pharmacological activities of the compounds showing the most prominent effects together with the activity of tolperisone used as reference drug are shown in Table 1.

The test system of assay [1] is GYKI-20039-induced tremor. In words: Test on the GYKI-20039-induced tremor. The assay is classed as in vivo, male CFLP mice. The settings on record: Mus musculus, iv; mice, pretreatment time 0 min; dose causing 50% inhibition of tremor induced by 10 mg/kg i.p. GYKI-20039. The method, then:
Method 1: Test on the GYKI-20039-induced tremor
Groups consisting of 10 to 20 male CFLP mice each weighing 19 to 21 g were intraperitoneally (i.p.) treated with 10 mg/kg of GYKI-20039 (test substance). Similarly to the structurally related compound of code number LON-954, GYKI-20039 induces a tremor on mice which is considered as the experimental model of the Parkinson's disease [Coward et al., Psychopharmacology 52, 165 (1977); Andrasi et al. IX Internat. Congress of Neuropathology, 1-98, 209, Vienna 1982]. The tremor induced by GYKI-20039 reaches a maximum strength 4 to 8 minutes following administration of the test substance, then it continuously diminishes and is finished within about 1 hour. According to our experiences obtained on ten known central muscle relaxants, this tremor can be inhibited by central muscle relaxants in a dose-dependent manner and is useful for the assay (evaluation) of the central muscle relaxant effects. After administration of the test substance, the mice were suspended on an isometric dynamometer in a light plastic box and the strength of the tremor was measured and quantified by electronic integration. The tremor strength of the mice was averaged in the 4th-8th minutes after treatment with the test substance.
The animals were pretreated with various doses of the muscle relaxants to be tested before the treatment with the test substance. […]

Where [2] appears, read: 10 mg/kg i.v., time until return to 75% of the control value.

Marks after values point to notes of the source that are not given here.

For orientation: ED50 means the midpoint of the dose-response relation. Regarding `C[Si](C)(CN1CCCCC1)c1ccccc1.O=C(O)/C=C/C(=O)O` [Compound 1, N-[(dimethyl-phenylsilyl)methyl]piperidine fumarate], in the assay with Straub's tail, the ED50 worked out at 30.7 mg/kg.
As for `C[Si](C)(CN1CCCC1)c1ccccc1.Cl` [Compound 3, N-[(dimethyl-phenylsilyl)methyl]pyrrolidine hydrochloride], the ED50 in the assay with Straub's tail turned out to be 37.7 mg/kg. The “Duration of effect T75%” value in the assay on flexor reflex (i.v., the effect of 5 mg/kg was investigated) was 50** min.
Regarding `C[Si](C)(CN1CCCCC1)c1ccc(F)cc1.O=C(O)/C=C/C(=O)O` [Compound 4, N-([dimethyl-(4-fluorophenyl)silyl]methyl)piperidine fumarate], the ED50 with Straub's tail is 19.1 mg/kg. The “Duration of effect T75%” value with flexor reflex (setting [2]) is 180 min.
Regarding `C[Si](C)(CN1CCCCC1)c1ccc(F)cc1.Cl` [Compound 5, N-([dimethyl-(4-fluorophenyl)silyl]methyl)piperidine hydrochloride], in the assay with Straub's tail, the ED50 came to 17.8 mg/kg. For the same molecule, the “Duration of effect T75%” value in the assay with flexor reflex (setting [2]) is recorded as > 180 min.
For `C[Si](C)(CN1CCCC1)c1ccc(F)cc1.Cl` [Compound 6, N-([dimethyl-(4-fluorophenyl)silyl]methyl)pyrrolidine hydrochloride], the ED50 in the assay with Straub's tail is 26.9 mg/kg. In the assay with flexor reflex (setting [2]), the “Duration of effect T75%” value was > 180 min.
Turning to `Cc1ccc(C(=O)C(C)CN2CCCCC2)cc1` (stereo not drawn) [Tolperisone, tolperisone, reference compound], the ED50 in assay [1] stood at 10.2 mg/kg; in the assay with Straub's tail it was 63 mg/kg. The “Duration of effect T75%” value with flexor reflex (setting [2]) was determined as 50 min.
